Legend:
[1] = system: B/FLA/06 yamagata lineage virus; design: species or system mice; conditions: mouse, in vivo
A/WSN/33 H1 virus = system: A/WSN/33 H1 virus; design: species or system mice; conditions: mouse, in vivo

CCOC(=O)C1=C[C@@H](OC(CC)CC)[C@H](NC(C)=O)[C@@H](N)C1 [oseltamivir]
oxygen saturation level (pulse oximetry) Day 6, B/FLA/06, avg. [1]: 86% | survival rates, influenza B infection [1]: 90-100% | oxygen saturation level (pulse oximetry) Day 6, A/WSN/33 (A/WSN/33 H1 virus): reduced oxygen saturation at similar levels as those treated with an irrelevant control mAb | protection (survival), influenza A infection model (A/WSN/33 H1 virus): no protection

Reference: US11524993B2 (priority 2015, dated 2022)
